Test results as given in ChEMBL document CHEMBL1123407, “Synthesis of a new chemically and metabolically stable prostacyclin analogue with high and long-lasting oral activity” (J Med Chem, 1986).

Tests used:
Rattus norvegicus = species: Rattus norvegicus; assay: In vitro inhibition of ADP (1.25 x 10E-6 M)-induced platelet aggregation in rat PRP (wistar); type: functional
Homo sapiens [1] = species: Homo sapiens; assay: In vitro inhibition of collagen (0.66 ug/mL)-induced platelet aggregation in human PRP; type: functional
Homo sapiens [2] = species: Homo sapiens; assay: In vitro inhibition of thrombin (0.1 IU/mL)-induced platelet aggregation in human PRP
Homo sapiens [3] = species: Homo sapiens; assay: In vitro inhibition of ADP (0.5 x 10E-6 M)-induced platelet aggregation in human PRP

| IC50 (Rattus norvegicus) | IC50 (Homo sapiens [1]) | IC50 (Homo sapiens [2]) | IC50 (Homo sapiens [3]) | SMILES |
| --- | --- | --- | --- | --- |
| 11400 pM | 390 pM | 390 pM | 820 pM | CC#CCC(C)[C@H](O)/C=C/[C@@H]1[C@H]2C/C(=C/CCCC(=O)O)C[C@H]2C[C@H]1O (stereo not given in full) [ILOPROST] |
| 2600 pM | – | – | 660 pM | CCCCC[C@H](O)/C=C/[C@@H]1[C@H]2C/C(=C/CCCC(=O)O)O[C@H]2C[C@H]1O [EPOPROSTENOL] |
| 3200 pM | 200 pM | 130 pM | 640 pM | CCC#CC[C@H](C)[C@H](O)C#CC1[C@H]2C/C(=C/COCC(=O)O)CC2C[C@H]1O (stereo not given in full) |
